From patent US11945822B2, “Pyrazolo-triazine and/or pyrazolo-pxrimidine derivatives as selective inhibitor of cyclin dependent kinase” (QURIENT CO., LTD., priority 2018, dated 2024)

System: HCT116
Assay: Cellular HCT116 viability assay (CellTiter-Glo, 72 hours)
Assay type: cell-based
Conditions: Homo sapiens, HCT-116
Procedure, shortened: (§1)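 Steps: seed cells at per-line density; add compound, DMSO vehicle kept under 0.1% final; incubate 72 h, 37 °C, 5% CO2; lyse with CellTiter-Glo and read luminescence; run in duplicate.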

IC50 [nM] | Compound
< 1000 | CC(C)c1cnn2c(NCc3ccccc3-n3cc4ccncc4n3)nc(N3CCC(N)CC3)nc12 [Compound 139]
< 1000 | CC(C)c1cnn2c(NCc3ccccc3-c3cn4ccc(F)cc4n3)nc(N3CCC(N)CC3)nc12 [Compound 124]
< 1000 | CC(C)CC(=O)Nc1cccc2cc(-c3ccccc3CNc3nc(N4CCC(N)CC4)nc4c(C(C)C)cnn34)[nH]c12 [Compound 145]
< 1000 | CC(C)c1cnn2c(NCc3ccccc3-n3cc4c(n3)CCOC4)nc(N3CCC(N)CC3)nc12 [Compound 133]

System: H460
Assay: Cellular H460 viability assay (CellTiter-Glo, 72 hours)
Assay type: cell-based
Conditions: Homo sapiens, NCI-H460
Procedure, shortened: as §1

IC50 [nM] | Compound
< 1000 | CC(C)c1cnn2c(NCc3ccccc3-n3cc4cc(Br)ccc4n3)nc(N3CCC(N)CC3)nc12 [Compound 100]
< 1000 | CC(C)c1cnn2c(NCc3ccccc3-n3cc4ccncc4n3)nc(N3CCC(N)CC3)nc12 [Compound 139]
< 1000 | CC(C)c1cnn2c(NCc3ccccc3-c3cn4ccc(F)cc4n3)nc(N3CCC(N)CC3)nc12 [Compound 124]
< 1000 | CC(C)CC(=O)Nc1cccc2cc(-c3ccccc3CNc3nc(N4CCC(N)CC4)nc4c(C(C)C)cnn34)[nH]c12 [Compound 145]
< 1000 | CC(C)c1cnn2c(NCc3ccccc3-n3cc4c(n3)CCOC4)nc(N3CCC(N)CC3)nc12 [Compound 133]

Biological target: T1, CDK2/Cyclin A (Homo sapiens, UniProt P24941)
T1 construct: purchased Invitrogen PV6290
Assay: Enzymatic assay for CDK2 (FRET based LANCE Ultra kinase assay)
Assay type: biochemical
Conditions: read-out: CDK2 enzymatic activity (IC50 range)
Procedure, shortened: (§2)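 LANCE Ultra TR-FRET: ULight-MBP peptide (68 nM) with ATP at Km, […], 60 min at 23° C. EDTA plus Eu-anti-phospho-MBP added, another 60 min, then 665/615 nm emission read. Compounds tested as 8-dose 4-fold DMSO dilutions.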

IC50 [nM] | Compound
100 to 1000 | CC(C)c1cnn2c(NCc3ccccc3-n3cc4ccncc4n3)nc(N3CCC(N)CC3)nc12 [Compound 139]
100 to 1000 | CC(C)c1cnn2c(NCc3ccccc3-c3cn4ccc(F)cc4n3)nc(N3CCC(N)CC3)nc12 [Compound 124]
100 to 1000 | CC(C)CC(=O)Nc1cccc2cc(-c3ccccc3CNc3nc(N4CCC(N)CC4)nc4c(C(C)C)cnn34)[nH]c12 [Compound 145]
100 to 1000 | CC(C)c1cnn2c(NCc3ccccc3-n3cc4c(n3)CCOC4)nc(N3CCC(N)CC3)nc12 [Compound 133]

Biological target: T2, CDK5/p25 (Homo sapiens, UniProt Q00535)
T2 construct: purchased Invitrogen PR8543B
Assay: Enzymatic assay for CDK5 (FRET based LANCE Ultra kinase assay)
Assay type: biochemical
Conditions: read-out: CDK5 enzymatic activity (IC50 range)
Procedure, shortened: as §2

T2 sequence (Q00535 whole entry): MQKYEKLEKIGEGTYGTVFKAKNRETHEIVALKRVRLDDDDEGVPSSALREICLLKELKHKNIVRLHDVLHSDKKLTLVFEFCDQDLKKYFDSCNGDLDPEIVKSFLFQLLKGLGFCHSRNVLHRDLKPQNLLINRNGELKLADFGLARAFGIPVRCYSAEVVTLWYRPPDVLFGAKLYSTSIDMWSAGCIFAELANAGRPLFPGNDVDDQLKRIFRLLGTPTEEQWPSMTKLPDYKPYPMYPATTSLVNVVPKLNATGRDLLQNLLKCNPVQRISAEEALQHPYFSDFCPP
T2 sequence (Q15078 99-307 partner limits assumed): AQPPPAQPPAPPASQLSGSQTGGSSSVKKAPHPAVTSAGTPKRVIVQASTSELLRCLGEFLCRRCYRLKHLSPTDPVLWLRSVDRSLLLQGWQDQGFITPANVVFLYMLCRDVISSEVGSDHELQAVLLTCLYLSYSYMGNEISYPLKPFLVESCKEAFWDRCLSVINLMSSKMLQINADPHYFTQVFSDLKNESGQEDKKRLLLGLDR

IC50 [nM] | Compound
100 to 1000 | CC(C)c1cnn2c(NCc3ccccc3-n3cc4ccncc4n3)nc(N3CCC(N)CC3)nc12 [Compound 139]
< 100 | CC(C)c1cnn2c(NCc3ccccc3-c3cn4ccc(F)cc4n3)nc(N3CCC(N)CC3)nc12 [Compound 124]
< 100 | CC(C)CC(=O)Nc1cccc2cc(-c3ccccc3CNc3nc(N4CCC(N)CC4)nc4c(C(C)C)cnn34)[nH]c12 [Compound 145]
100 to 1000 | CC(C)c1cnn2c(NCc3ccccc3-n3cc4c(n3)CCOC4)nc(N3CCC(N)CC3)nc12 [Compound 133]

System: MOLT-4
Assay: Cellular MOLT-4 viability assay (CellTiter-Glo, 72 hours)
Assay type: cell-based
Conditions: Homo sapiens, MOLT4 viability assay
Procedure, shortened: as §1

IC50 [nM] | Compound
1000 to 10000 | CC(C)c1cnn2c(NCc3ccccc3-n3cc4cc(Br)ccc4n3)nc(N3CCC(N)CC3)nc12 [Compound 100]

System: RPMI-8226
Assay: Cellular RPMI-8226 viability assay (CellTiter-Glo, 72 hours)
Assay type: cell-based
Conditions: Homo sapiens
Procedure: All cell lines were routinely tested for mycoplasma.
The effect of the CDK7 inhibitor to inhibit the growth of target cancer cells was evaluated through the 72 hours time period of viability assay. Briefly, the candidate cell line ware plated in 96 well plate at the following density of cells respectively. […] DMSO solvent without compound served as a control and final DMSO concentration less than 0.1%. After 72 hours of incubation at 37° C., 5% CO2 incubator, cells were analyzed for the viability using the CellTiter-Glo Luminescent Cell Viability Assay (Promega, Cat #G7570). All viability assays were performed in duplicate and Luminescence was read using an Envision (Perkin Elmer, USA). Data was analyzed using XLfit software.

IC50 [nM] | Compound
1000 to 10000 | CC(C)c1cnn2c(NCc3ccccc3-n3cc4cc(Br)ccc4n3)nc(N3CCC(N)CC3)nc12 [Compound 100]
< 1000 | CC(C)c1cnn2c(NCc3ccccc3-n3cc4ccncc4n3)nc(N3CCC(N)CC3)nc12 [Compound 139]
< 1000 | CC(C)c1cnn2c(NCc3ccccc3-c3cn4ccc(F)cc4n3)nc(N3CCC(N)CC3)nc12 [Compound 124]
< 1000 | CC(C)CC(=O)Nc1cccc2cc(-c3ccccc3CNc3nc(N4CCC(N)CC4)nc4c(C(C)C)cnn34)[nH]c12 [Compound 145]
< 1000 | CC(C)c1cnn2c(NCc3ccccc3-n3cc4c(n3)CCOC4)nc(N3CCC(N)CC3)nc12 [Compound 133]

System: MV4-11
Assay: Cellular MV4-11 viability assay (CellTiter-Glo, 72 hours)
Assay type: cell-based
Conditions: Homo sapiens
Procedure, shortened: as §1

IC50 [nM] | Compound
< 1000 | CC(C)c1cnn2c(NCc3ccccc3-n3cc4ccncc4n3)nc(N3CCC(N)CC3)nc12 [Compound 139]
< 1000 | CC(C)c1cnn2c(NCc3ccccc3-c3cn4ccc(F)cc4n3)nc(N3CCC(N)CC3)nc12 [Compound 124]
< 1000 | CC(C)CC(=O)Nc1cccc2cc(-c3ccccc3CNc3nc(N4CCC(N)CC4)nc4c(C(C)C)cnn34)[nH]c12 [Compound 145]
< 1000 | CC(C)c1cnn2c(NCc3ccccc3-n3cc4c(n3)CCOC4)nc(N3CCC(N)CC3)nc12 [Compound 133]

Biological target: T3, CDK7/Cyclin H/MNAT1 (Homo sapiens, UniProt P50613)
T3 construct: purchased Invitrogen PR6749B
Assay: Enzymatic assay for CDK7 (FRET based LANCE Ultra kinase assay)
Assay type: biochemical
Conditions: CDK7 over CDK1
Procedure, shortened: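 LANCE Ultra TR-FRET kinase assay using a ULight-labeled peptide substrate and a Eu-labeled anti-phospho antibody, with ATP at its Km. Purified CDK/cyclin complex was added to compound after brief centrifugation.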

T3 sequence (P50613 whole entry): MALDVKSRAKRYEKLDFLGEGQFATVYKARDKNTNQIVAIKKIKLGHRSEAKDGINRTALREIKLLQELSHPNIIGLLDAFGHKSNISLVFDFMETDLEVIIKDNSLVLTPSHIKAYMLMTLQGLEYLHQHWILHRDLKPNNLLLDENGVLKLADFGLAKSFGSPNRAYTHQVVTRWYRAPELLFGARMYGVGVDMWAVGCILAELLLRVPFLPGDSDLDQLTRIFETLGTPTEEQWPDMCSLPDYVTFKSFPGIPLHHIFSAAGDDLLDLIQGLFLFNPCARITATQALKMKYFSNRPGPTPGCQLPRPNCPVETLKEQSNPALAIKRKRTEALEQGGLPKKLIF
T3 sequence (P51946 whole entry partner): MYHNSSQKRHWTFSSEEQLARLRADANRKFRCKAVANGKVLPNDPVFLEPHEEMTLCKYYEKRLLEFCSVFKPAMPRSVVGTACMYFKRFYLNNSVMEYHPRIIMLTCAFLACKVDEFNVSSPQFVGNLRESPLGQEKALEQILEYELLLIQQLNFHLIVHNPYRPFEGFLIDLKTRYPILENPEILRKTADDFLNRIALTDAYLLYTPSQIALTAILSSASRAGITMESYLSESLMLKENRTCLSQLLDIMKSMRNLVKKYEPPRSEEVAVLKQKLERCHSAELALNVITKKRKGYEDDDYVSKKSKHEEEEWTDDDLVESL
T3 sequence (P51948 whole entry partner): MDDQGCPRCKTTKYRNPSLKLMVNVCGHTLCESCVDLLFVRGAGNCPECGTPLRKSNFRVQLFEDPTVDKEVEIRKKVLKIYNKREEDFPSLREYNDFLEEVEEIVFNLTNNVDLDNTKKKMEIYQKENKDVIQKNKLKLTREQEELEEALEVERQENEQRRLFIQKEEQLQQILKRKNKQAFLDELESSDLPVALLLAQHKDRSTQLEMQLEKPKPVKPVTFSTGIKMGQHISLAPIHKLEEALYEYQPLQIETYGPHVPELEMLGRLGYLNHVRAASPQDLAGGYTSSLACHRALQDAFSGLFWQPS

Compound | CDK1/CDK7: Selectivity of CDK7 inhibition over CDK1 inhibition
CC(C)c1cnn2c(NCc3ccccc3-n3cc4ccncc4n3)nc(N3CCC(N)CC3)nc12 [Compound 139] | A (A=greater than 200 fold)
CC(C)c1cnn2c(NCc3ccccc3-c3cn4ccc(F)cc4n3)nc(N3CCC(N)CC3)nc12 [Compound 124] | B (B=less than 200 fold, but greater than 20 fold)
CC(C)CC(=O)Nc1cccc2cc(-c3ccccc3CNc3nc(N4CCC(N)CC4)nc4c(C(C)C)cnn34)[nH]c12 [Compound 145] | B (B=less than 200 fold, but greater than 20 fold)
CC(C)c1cnn2c(NCc3ccccc3-n3cc4c(n3)CCOC4)nc(N3CCC(N)CC3)nc12 [Compound 133] | A (A=greater than 200 fold)

Same assay, conditions: CDK7 over CDK2

Compound | CDK2/CDK7: Selectivity of CDK7 inhibition over CDK2 inhibition
CC(C)c1cnn2c(NCc3ccccc3-n3cc4ccncc4n3)nc(N3CCC(N)CC3)nc12 [Compound 139] | B (B=less than 200 fold, but greater than 20 fold)
CC(C)c1cnn2c(NCc3ccccc3-c3cn4ccc(F)cc4n3)nc(N3CCC(N)CC3)nc12 [Compound 124] | B (B=less than 200 fold, but greater than 20 fold)
CC(C)CC(=O)Nc1cccc2cc(-c3ccccc3CNc3nc(N4CCC(N)CC4)nc4c(C(C)C)cnn34)[nH]c12 [Compound 145] | B (B=less than 200 fold, but greater than 20 fold)
CC(C)c1cnn2c(NCc3ccccc3-n3cc4c(n3)CCOC4)nc(N3CCC(N)CC3)nc12 [Compound 133] | B (B=less than 200 fold, but greater than 20 fold)

Same assay, conditions: CDK7 over CDK5

Compound | CDK5/CDK7: Selectivity of CDK7 inhibition over CDK5 inhibition
CC(C)c1cnn2c(NCc3ccccc3-n3cc4ccncc4n3)nc(N3CCC(N)CC3)nc12 [Compound 139] | B (B=less than 200 fold, but greater than 20 fold)
CC(C)c1cnn2c(NCc3ccccc3-c3cn4ccc(F)cc4n3)nc(N3CCC(N)CC3)nc12 [Compound 124] | C (C=less than 20 fold)
CC(C)CC(=O)Nc1cccc2cc(-c3ccccc3CNc3nc(N4CCC(N)CC4)nc4c(C(C)C)cnn34)[nH]c12 [Compound 145] | C (C=less than 20 fold)
CC(C)c1cnn2c(NCc3ccccc3-n3cc4c(n3)CCOC4)nc(N3CCC(N)CC3)nc12 [Compound 133] | B (B=less than 200 fold, but greater than 20 fold)

Same assay, conditions: read-out: CDK7 enzymatic activity (IC50 range)

IC50 [nM] | Compound
< 100 | CC(C)c1cnn2c(NCc3ccccc3-n3cc4ccncc4n3)nc(N3CCC(N)CC3)nc12 [Compound 139]
< 100 | CC(C)c1cnn2c(NCc3ccccc3-c3cn4ccc(F)cc4n3)nc(N3CCC(N)CC3)nc12 [Compound 124]
< 100 | CC(C)CC(=O)Nc1cccc2cc(-c3ccccc3CNc3nc(N4CCC(N)CC4)nc4c(C(C)C)cnn34)[nH]c12 [Compound 145]
< 100 | CC(C)c1cnn2c(NCc3ccccc3-n3cc4c(n3)CCOC4)nc(N3CCC(N)CC3)nc12 [Compound 133]

Biological target: T4, CDK1/Cyclin B (Homo sapiens, UniProt P06493)
T4 construct: purchased Invitrogen PR4768C
Assay: Enzymatic assay for CDK1 (FRET based LANCE Ultra kinase assay)
Assay type: biochemical
Conditions: read-out: CDK1 enzymatic activity (IC50 range)
Procedure, shortened: as §2

T4 sequence (P06493 whole entry): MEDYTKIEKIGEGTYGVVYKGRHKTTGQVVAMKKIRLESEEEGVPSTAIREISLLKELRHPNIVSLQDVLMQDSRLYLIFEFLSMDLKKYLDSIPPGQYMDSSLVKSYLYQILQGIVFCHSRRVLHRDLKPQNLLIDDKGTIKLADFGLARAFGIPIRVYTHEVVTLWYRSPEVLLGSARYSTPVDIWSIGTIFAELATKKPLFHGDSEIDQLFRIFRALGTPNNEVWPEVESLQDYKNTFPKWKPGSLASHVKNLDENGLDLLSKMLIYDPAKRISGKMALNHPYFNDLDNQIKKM
T4 sequence (P14635 whole entry partner): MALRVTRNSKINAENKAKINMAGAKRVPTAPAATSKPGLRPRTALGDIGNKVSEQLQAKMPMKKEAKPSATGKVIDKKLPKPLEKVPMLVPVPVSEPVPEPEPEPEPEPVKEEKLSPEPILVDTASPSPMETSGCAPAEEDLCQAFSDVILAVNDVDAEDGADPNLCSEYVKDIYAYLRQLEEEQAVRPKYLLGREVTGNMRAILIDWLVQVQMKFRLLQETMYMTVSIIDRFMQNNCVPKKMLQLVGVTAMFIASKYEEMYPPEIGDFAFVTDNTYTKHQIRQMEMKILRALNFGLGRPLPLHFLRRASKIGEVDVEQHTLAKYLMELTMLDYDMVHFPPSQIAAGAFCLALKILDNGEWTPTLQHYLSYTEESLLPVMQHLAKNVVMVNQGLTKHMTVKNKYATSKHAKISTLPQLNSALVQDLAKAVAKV

IC50 [nM] | Compound
> 1000 | CC(C)c1cnn2c(NCc3ccccc3-n3cc4ccncc4n3)nc(N3CCC(N)CC3)nc12 [Compound 139]
100 to 1000 | CC(C)c1cnn2c(NCc3ccccc3-c3cn4ccc(F)cc4n3)nc(N3CCC(N)CC3)nc12 [Compound 124]
100 to 1000 | CC(C)CC(=O)Nc1cccc2cc(-c3ccccc3CNc3nc(N4CCC(N)CC4)nc4c(C(C)C)cnn34)[nH]c12 [Compound 145]
> 1000 | CC(C)c1cnn2c(NCc3ccccc3-n3cc4c(n3)CCOC4)nc(N3CCC(N)CC3)nc12 [Compound 133]
